Measured values taken from the kinase profiling compilation of Christmann-Franck et al. (2016).

Key:
Test in all cases: Caliper, Mobility shift assay off-chip
[1] = target: MARK2 (human) (UniProt Q7KZI7)
[2] = target: SLK (human) (UniProt Q9H2G2)
[3] = target: EEF2K (human) (UniProt O00418)
[4] = target: ERBB4 (human) (UniProt Q15303)
[5] = target: CAMK2A (human) (UniProt Q9UQM7)
[6] = target: STK38 (human) (UniProt Q15208)
[7] = target: MAPK3 (human) (UniProt P27361)
[8] = target: DYRK2 (human) (UniProt Q92630)
[9] = target: BRSK2 (human) (UniProt Q8IWQ3)
[10] = target: PRKCI (human) (UniProt P41743)
[11] = target: RPS6KA1 KD1 KD2 (human) (UniProt Q15418)
[12] = target: LATS2 (human) (UniProt Q9NRM7)
[13] = target: CHUK (human) (UniProt O15111)
[14] = target: DCLK2 (human) (UniProt Q8N568)
[15] = target: AXL (human) (UniProt P30530)
[16] = target: RPS6KB1 (human) (UniProt P23443)
[17] = target: CLK3 (human) (UniProt P49761)
[18] = target: SRMS (human) (UniProt Q9H3Y6)
[19] = target: WNK3 (human) (UniProt Q9BYP7)
[20] = target: CAMK4 (human) (UniProt Q16566)
[21] = target: CLK2 (human) (UniProt P49760)
[22] = target: FGFR1 (human) (UniProt P11362)
[23] = target: MAPKAPK3 (human) (UniProt Q16644)
[24] = target: CDC7 (human) (UniProt O00311)
[25] = target: EPHA8 (human) (UniProt P29322)
[26] = target: CDK5 (human) (UniProt Q00535)
[27] = target: MELK (human) (UniProt Q14680)
[28] = target: NEK7 (human) (UniProt Q8TDX7)
[29] = target: CAMK2D (human) (UniProt Q13557); settings: compound 0.2 µM
[30] = target: CHEK1 (human) (UniProt O14757)
[31] = target: IKBKB (human) (UniProt O14920)
IKBKB (human), sequence (O14920 whole entry, looked up): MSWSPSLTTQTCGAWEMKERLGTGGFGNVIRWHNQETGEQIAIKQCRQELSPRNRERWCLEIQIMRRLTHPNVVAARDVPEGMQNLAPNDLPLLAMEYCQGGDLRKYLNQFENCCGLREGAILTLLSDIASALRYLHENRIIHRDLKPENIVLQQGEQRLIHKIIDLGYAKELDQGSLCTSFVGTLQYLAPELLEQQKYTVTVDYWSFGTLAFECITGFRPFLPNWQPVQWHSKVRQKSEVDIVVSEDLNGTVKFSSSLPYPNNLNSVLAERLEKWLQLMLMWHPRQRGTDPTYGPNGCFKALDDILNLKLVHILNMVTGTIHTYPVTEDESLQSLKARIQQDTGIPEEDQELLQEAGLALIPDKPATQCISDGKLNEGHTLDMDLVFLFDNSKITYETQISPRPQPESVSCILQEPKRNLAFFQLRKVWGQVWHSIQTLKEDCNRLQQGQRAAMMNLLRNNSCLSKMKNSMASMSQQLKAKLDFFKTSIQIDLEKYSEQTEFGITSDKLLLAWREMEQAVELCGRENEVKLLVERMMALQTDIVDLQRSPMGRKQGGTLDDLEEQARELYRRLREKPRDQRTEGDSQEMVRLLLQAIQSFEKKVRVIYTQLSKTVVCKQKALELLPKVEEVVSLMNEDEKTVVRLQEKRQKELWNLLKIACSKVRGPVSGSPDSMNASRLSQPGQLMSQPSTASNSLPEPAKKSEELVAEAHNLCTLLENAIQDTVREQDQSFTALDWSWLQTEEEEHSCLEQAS

EEF2K (human), sequence (O00418 whole entry, looked up): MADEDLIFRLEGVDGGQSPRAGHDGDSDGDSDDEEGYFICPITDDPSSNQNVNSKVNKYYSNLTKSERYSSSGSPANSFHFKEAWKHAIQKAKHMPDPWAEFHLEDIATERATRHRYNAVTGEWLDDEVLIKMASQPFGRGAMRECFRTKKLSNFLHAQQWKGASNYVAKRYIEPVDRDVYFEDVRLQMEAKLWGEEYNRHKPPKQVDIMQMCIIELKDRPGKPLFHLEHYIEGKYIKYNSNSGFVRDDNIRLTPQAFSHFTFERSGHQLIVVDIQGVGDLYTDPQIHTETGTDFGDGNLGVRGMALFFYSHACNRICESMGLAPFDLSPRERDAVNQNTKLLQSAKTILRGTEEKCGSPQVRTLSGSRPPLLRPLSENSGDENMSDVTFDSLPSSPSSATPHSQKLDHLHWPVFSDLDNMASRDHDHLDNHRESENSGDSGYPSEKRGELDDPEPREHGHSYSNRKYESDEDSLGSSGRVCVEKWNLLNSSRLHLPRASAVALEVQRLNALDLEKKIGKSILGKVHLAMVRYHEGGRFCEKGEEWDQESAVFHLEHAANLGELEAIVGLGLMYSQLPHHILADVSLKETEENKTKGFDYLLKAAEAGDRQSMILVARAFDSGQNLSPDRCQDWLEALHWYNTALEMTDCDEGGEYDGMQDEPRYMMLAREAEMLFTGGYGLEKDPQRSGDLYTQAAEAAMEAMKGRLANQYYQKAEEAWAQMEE
FGFR1 (human), sequence (P11362 whole entry, looked up): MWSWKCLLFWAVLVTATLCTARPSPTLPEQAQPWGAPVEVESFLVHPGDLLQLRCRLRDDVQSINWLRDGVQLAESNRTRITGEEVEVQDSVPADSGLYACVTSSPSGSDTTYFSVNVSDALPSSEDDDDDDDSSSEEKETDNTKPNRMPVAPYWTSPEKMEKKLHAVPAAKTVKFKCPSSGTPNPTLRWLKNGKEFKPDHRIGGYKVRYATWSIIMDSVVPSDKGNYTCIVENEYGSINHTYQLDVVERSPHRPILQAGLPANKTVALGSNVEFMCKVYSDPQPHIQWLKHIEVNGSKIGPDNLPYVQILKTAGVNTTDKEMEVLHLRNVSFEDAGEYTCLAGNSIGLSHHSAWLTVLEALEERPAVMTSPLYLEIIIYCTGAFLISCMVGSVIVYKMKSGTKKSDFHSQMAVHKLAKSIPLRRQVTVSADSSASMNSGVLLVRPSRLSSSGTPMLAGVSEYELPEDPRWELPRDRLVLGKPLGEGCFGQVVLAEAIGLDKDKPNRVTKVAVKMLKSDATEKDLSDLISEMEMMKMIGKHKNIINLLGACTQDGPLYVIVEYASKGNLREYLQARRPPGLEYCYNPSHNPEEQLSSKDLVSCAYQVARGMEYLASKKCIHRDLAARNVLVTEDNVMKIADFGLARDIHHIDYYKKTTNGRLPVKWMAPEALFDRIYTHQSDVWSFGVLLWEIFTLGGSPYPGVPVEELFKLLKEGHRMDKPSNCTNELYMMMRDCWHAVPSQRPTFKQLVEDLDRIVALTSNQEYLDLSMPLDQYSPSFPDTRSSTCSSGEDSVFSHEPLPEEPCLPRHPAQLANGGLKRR
MAPK3 (human), sequence (P27361 whole entry, looked up): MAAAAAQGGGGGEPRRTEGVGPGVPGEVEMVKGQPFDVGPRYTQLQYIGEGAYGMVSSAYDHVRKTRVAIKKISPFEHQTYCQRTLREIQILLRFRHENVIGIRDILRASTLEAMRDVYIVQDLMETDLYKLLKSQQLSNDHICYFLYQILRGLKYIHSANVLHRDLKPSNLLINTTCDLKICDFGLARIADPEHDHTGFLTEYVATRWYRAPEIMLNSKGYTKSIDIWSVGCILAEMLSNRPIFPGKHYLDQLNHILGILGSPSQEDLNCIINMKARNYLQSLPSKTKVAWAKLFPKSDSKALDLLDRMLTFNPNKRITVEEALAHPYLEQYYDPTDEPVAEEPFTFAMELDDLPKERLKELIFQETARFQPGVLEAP
EPHA8 (human), sequence (P29322 whole entry, looked up): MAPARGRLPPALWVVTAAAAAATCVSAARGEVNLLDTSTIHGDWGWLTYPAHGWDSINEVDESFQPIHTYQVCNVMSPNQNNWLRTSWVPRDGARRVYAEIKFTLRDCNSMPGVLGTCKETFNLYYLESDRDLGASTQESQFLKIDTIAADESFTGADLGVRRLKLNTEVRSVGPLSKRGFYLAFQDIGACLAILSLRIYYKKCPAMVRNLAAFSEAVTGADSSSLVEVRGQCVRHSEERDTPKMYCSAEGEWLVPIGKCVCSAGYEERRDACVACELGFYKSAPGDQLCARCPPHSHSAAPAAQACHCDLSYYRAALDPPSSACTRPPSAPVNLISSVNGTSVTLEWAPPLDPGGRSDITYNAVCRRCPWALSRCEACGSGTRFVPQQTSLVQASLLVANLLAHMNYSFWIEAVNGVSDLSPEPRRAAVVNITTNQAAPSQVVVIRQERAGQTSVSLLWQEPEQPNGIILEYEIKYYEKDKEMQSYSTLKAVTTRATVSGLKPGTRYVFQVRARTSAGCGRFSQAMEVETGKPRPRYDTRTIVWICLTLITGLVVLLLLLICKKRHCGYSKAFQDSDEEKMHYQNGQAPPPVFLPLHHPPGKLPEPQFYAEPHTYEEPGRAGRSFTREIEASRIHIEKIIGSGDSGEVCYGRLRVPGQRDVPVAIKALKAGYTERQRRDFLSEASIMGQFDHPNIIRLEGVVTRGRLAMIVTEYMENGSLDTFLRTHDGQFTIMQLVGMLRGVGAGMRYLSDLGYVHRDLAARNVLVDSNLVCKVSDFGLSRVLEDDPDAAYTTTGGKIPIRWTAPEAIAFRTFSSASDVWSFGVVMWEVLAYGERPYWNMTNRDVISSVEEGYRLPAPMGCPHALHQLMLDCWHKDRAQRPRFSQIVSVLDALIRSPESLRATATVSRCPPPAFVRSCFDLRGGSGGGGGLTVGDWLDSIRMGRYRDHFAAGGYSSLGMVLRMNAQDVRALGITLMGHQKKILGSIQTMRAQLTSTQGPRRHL
CAMK2A (human), sequence (Q9UQM7 whole entry, looked up): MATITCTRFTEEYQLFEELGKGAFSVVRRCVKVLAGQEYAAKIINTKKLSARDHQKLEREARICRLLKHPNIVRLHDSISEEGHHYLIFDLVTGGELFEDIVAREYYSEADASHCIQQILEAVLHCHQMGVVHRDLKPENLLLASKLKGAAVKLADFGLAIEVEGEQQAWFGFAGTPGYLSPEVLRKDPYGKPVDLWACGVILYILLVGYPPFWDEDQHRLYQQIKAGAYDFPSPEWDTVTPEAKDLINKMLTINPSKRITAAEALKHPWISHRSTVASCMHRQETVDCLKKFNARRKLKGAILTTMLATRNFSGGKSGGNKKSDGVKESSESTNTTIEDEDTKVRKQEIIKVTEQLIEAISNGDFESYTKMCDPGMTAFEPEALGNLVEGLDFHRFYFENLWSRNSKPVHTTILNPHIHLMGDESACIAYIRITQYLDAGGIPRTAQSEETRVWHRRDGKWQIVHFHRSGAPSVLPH
RPS6KB1 (human), sequence (P23443 whole entry, looked up): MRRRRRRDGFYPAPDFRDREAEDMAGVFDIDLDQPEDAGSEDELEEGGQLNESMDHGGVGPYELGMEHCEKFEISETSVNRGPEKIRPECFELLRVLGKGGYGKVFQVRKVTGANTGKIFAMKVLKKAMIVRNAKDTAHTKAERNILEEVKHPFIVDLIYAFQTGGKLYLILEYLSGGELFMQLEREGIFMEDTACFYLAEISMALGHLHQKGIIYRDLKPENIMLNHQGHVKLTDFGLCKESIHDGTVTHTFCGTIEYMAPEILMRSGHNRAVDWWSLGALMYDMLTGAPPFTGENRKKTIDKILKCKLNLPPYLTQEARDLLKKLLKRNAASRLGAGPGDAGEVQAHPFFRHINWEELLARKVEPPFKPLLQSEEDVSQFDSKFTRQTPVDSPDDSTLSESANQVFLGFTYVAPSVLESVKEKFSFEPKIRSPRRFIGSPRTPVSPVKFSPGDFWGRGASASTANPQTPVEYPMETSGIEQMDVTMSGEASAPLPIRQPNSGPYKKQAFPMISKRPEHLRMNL
NEK7 (human), sequence (Q8TDX7 whole entry, looked up): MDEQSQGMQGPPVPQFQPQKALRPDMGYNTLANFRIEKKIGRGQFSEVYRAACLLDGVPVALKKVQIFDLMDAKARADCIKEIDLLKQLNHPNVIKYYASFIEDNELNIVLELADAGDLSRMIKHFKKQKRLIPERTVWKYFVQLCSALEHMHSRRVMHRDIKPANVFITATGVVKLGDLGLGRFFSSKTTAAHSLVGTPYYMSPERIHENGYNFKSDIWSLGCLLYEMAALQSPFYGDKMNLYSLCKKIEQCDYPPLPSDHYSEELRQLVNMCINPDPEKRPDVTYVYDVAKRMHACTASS

Which inhibition ([1]; compound 0.02 µM) does the source give for CNC(=O)c1cc(Oc2ccc(NC(=O)Nc3ccc(Cl)c(C(F)(F)F)c3)cc2)ccn1 here?
Its inhibition is -10.6%.

What about the inhibition ([1]; compound 0.2 µM) of the same compound?
Its inhibition is -9.7%.

What about the inhibition ([2]; compound 0.02 µM) of the same compound?
The inhibition was 1%.

And the inhibition ([2]; compound 0.2 µM)?
Its inhibition is 10.6%.

And the inhibition ([3]; compound 0.02 µM)?
The inhibition was -3.9%.

And the inhibition ([3]; compound 0.2 µM)?
Its inhibition is 0%.

And the inhibition ([4]; compound 0.02 µM)?
Its inhibition is -0.4%.

What about the inhibition ([4]; compound 0.2 µM) of the same compound?
Its inhibition is 10.4%.

And the inhibition ([5]; compound 0.02 µM)?
Its inhibition is -2.1%.

And the inhibition ([5]; compound 0.2 µM)?
The inhibition was 5.8%.

What about the inhibition ([6]; compound 0.02 µM) of the same compound?
The inhibition was -2.5%.

And the inhibition ([6]; compound 0.2 µM)?
Its inhibition is 4.8%.

What about the inhibition ([7]; compound 0.02 µM) of the same compound?
Its inhibition is -2.3%.

What about the inhibition ([7]; compound 0.2 µM) of the same compound?
The inhibition was -0.7%.

What about the inhibition ([8]; compound 0.02 µM) of the same compound?
Its inhibition is -7.8%.

And the inhibition ([8]; compound 0.2 µM)?
The inhibition was 6.1%.

And the inhibition ([9]; compound 0.02 µM)?
Its inhibition is -1.1%.

And the inhibition ([9]; compound 0.2 µM)?
The inhibition was -1.3%.

What about the inhibition ([10]; compound 0.02 µM) of the same compound?
Its inhibition is -0.2%.

What about the inhibition ([10]; compound 0.2 µM) of the same compound?
The inhibition was 5.7%.

And the inhibition ([11]; compound 0.02 µM)?
The inhibition was -3.6%.

What about the inhibition ([11]; compound 0.2 µM) of the same compound?
The inhibition was 3.1%.

And the inhibition ([12]; compound 0.02 µM)?
Its inhibition is -4.4%.

And the inhibition ([12]; compound 0.2 µM)?
Its inhibition is 2.8%.

And the inhibition ([13]; compound 0.02 µM)?
The inhibition was 3.4%.

What about the inhibition ([13]; compound 0.2 µM) of the same compound?
Its inhibition is 1%.

What about the inhibition ([14]; compound 0.02 µM) of the same compound?
The inhibition was -2.7%.

And the inhibition ([14]; compound 0.2 µM)?
The inhibition was -1%.

And the inhibition ([15]; compound 0.02 µM)?
The inhibition was -7.4%.

And the inhibition ([15]; compound 0.2 µM)?
The inhibition was 7.1%.

What about the inhibition ([16]; compound 0.02 µM) of the same compound?
Its inhibition is 8.1%.

And the inhibition ([16]; compound 0.2 µM)?
Its inhibition is 48.1%.

And the inhibition ([17]; compound 0.02 µM)?
Its inhibition is -7.5%.

What about the inhibition ([17]; compound 0.2 µM) of the same compound?
Its inhibition is 5.9%.

What about the inhibition ([18]; compound 0.02 µM) of the same compound?
The inhibition was -0.4%.

And the inhibition ([18]; compound 0.2 µM)?
Its inhibition is 4.1%.

And the inhibition ([19]; compound 0.02 µM)?
Its inhibition is -8%.

What about the inhibition ([19]; compound 0.2 µM) of the same compound?
The inhibition was 3.9%.

And the inhibition ([20]; compound 0.02 µM)?
Its inhibition is -8.3%.

And the inhibition ([20]; compound 0.2 µM)?
Its inhibition is 1.9%.

What about the inhibition ([21]; compound 0.02 µM) of the same compound?
The inhibition was -0.7%.

What about the inhibition ([21]; compound 0.2 µM) of the same compound?
The inhibition was -2.1%.

And the inhibition ([22]; compound 0.02 µM)?
The inhibition was 5.3%.

What about the inhibition ([22]; compound 0.2 µM) of the same compound?
Its inhibition is 49.9%.

What about the inhibition ([23]; compound 0.02 µM) of the same compound?
Its inhibition is -6.2%.

What about the inhibition ([23]; compound 0.2 µM) of the same compound?
Its inhibition is 3.5%.

What about the inhibition ([24]; compound 0.02 µM) of the same compound?
Its inhibition is -4.3%.

What about the inhibition ([24]; compound 0.2 µM) of the same compound?
Its inhibition is -4.2%.

What about the inhibition ([25]; compound 0.02 µM) of the same compound?
Its inhibition is 2.5%.

What about the inhibition ([25]; compound 0.2 µM) of the same compound?
Its inhibition is 37.2%.

What about the inhibition ([26]; compound 0.02 µM) of the same compound?
The inhibition was -3.5%.

And the inhibition ([26]; compound 0.2 µM)?
Its inhibition is -3.6%.

And the inhibition ([27]; compound 0.02 µM)?
The inhibition was -4.3%.

What about the inhibition ([27]; compound 0.2 µM) of the same compound?
Its inhibition is -1.1%.

And the inhibition ([28]; compound 0.02 µM)?
The inhibition was -3.3%.

And the inhibition ([28]; compound 0.2 µM)?
Its inhibition is -3.3%.

And the inhibition [29]?
The inhibition was 5.2%.

What about the inhibition ([30]; compound 0.02 µM) of the same compound?
The inhibition was -2.7%.

What about the inhibition ([30]; compound 0.2 µM) of the same compound?
The inhibition was 5.3%.

And the inhibition ([31]; compound 0.02 µM)?
The inhibition was 0.9%.

What about the inhibition ([31]; compound 0.2 µM) of the same compound?
Its inhibition is 1.4%.
